Data on five molecules can be found in paper PMC7756341, “Liposomal FRET Assay Identifies Potent Drug‐Like Inhibitors of the Ceramide Transport Protein (CERT)” (Chemistry (Weinheim an Der Bergstrasse, Germany), 2020).

For this assay, the target named is T1, START domain of human CERT (Homo sapiens, UniProt Q9Y5P4).
T1 construct: The START domain of hCERT was expressed has a His6-SUMO fusion protein [2]; His6-SUMO (N, cleaved yes); made in house; host or cells: E. coli BL21(DE3), pQE-based plasmid
T1 sequence (Q9Y5P4 347-598 isoform Q9Y5P4-2 limits assumed): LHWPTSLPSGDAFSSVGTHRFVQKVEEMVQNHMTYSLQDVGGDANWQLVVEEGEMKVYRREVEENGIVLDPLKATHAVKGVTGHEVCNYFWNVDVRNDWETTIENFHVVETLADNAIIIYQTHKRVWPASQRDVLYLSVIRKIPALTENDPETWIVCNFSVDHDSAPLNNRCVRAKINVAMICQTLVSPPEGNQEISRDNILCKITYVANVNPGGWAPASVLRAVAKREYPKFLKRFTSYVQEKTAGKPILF
The assay can be described thus: Microscale thermophoresis (MST) binding assay. As to conditions: for Kd: fluorescently labeled START domain 50 nM. The procedure: 1.2 Expression and purification of the START domain of human CERT
The START domain of hCERT was expressed has a His6-SUMO fusion protein [2]. The pQE-based plasmid harboring the genetic information of His6-SUMO-START was transformed into E. coli BL21(DE3) by following the standard heat shock method. Colonies were grown on carbenicillin ([…]) and 1% glucose supplemented Luria–Bertani (LB) agar plates. A single colony was used to inoculate 20 ml of pre-culture 1 % of which was then used to inoculate 500 ml of LB medium ([…] carbenicillin, 10 mM glucose, 37 °C, 160 rpm). Upon reaching OD600 = 0.8, the culture was induced with 500 μM IPTG (isopropyl-β-d-thiogalactoside) and cells were incubated for 16 h with continuous shaking at 160 rpm. The cells were harvested by centrifugation […]
For purification of the protein, the cell pellet was re-suspended in lysis buffer (25 mM Tris/HCl, pH 7.4, 270 mM Sucrose, 1% Triton X-100, 2.5 mM dithiothreitol (DTT), Protease/Phosphatase inhibitor) on ice. Cells were disrupted using an EmulsiFlex-C3 instrument (Avestin Inc.; CANADA). The lysate was cleared by centrifugation, and the supernatant was loaded onto a Ni– NTA column (Qiagen). The protein was washed with loading buffer pH 7.4 (50 mM Na2HPO4, 50 mM NaH2PO4, 150 mM NaCl, 2,5 mM DTT) containing 20 mM imidazole and eluted with elution […]
mM imidazole. Fractions containing the protein of interest according to SDS-PAGE were pooled and digested with Ubiquitin-like-protein specific protease 1 (ULP1). The by-products (His6-SUMO and ULP1) were removed in a second IMAC step, and the target protein was subjected to a final purification by gel filtration on a superdex 200 16/600 prep grade column equilibrated with loading buffer pH 7.4 (50 mM Na2HPO4, 50 mM NaH2PO4, 150 mM NaCl, 2.5 mM DTT). The monomeric form of the START domain of hCERT was collected. The final concentration of the protein was determined via UV-Visible spectrophotometry (Varian Cary 50) at 280 nm using a calculated extinction coefficient of 50420 (M-1 cm-1).
4. Microscale Thermophoresis (MST) assays
4.1 Labeling of the START domain with a fluorophore dye
In order to perform MST assays, the START domain was coupled with a commercially available fluorophore dye (NT647 (NanoTemper Technologies, Munich, Germany)) following standard procedures provided in the manufacturer's protocol. Briefly, 10 µM of the START domain was labeled with 30 µM of the fluorophore in NHS-LB buffer kept in the dark for 30min. Any excess of the dye was removed via size exclusion chromatography on a Sephadex G25 column (GE Healthcare). The concentration of the labeled protein was determined by UV-VIS spectrophotometry at 280 nm (Varian Cary 50).
4.2 Preparation of the dilution series and MST assay
Dilution series of small-molecule ligands were prepared from stock solutions in DMSO. In case of 6B11 and 17C9, ligands were then diluted into MST buffer (50 mM Na-phosphate, 150 mM NaCl, 2.5 mM DTT, 0.05% Tween-20) to a concentration 2-fold higher than the maximum concentration used in the assay. The concentration of DMSO was kept constant in all dilutions. 16 dilutions of the ligands were prepared in micro reaction tubes by successive 1:1 dilutions with […]
solubility problems. To this end, first, a dilution series in pure DMSO was generated. The individual dilutions were then further diluted 20-fold with MST buffer to a ligand concentration 2-fold higher than its final concentration. As a final step, 10 μL of the fluorescently labeled START domain was added to all reaction tubes containing 10 μL of ligand solution. The final concentration of START domain was 50 nM. After mixing, 2-3 μL of the reaction mixture were filled into standard capillaries (Nanotemper Technologies).
MST measurements were performed with a Monolith NT.115 instrument (Nanotemper Technologies). All ligands were measured as triplicates. 40% MST excitation power was set and, depending on the labeled protein concentration used in the assay, between 5% to 20% of LED […]

“And” between values parts separate entries of the source, which are not always exact repeats. Identical values can stand only once. Like-named read-outs stand apart in the source and are kept apart here.

`CCCC(=O)OCOC(=O)C1=C(C)NC(C)=C(C(=O)OC)C1c1cccc(Cl)c1Cl` (stereo not drawn) [6B11, Clevidipine butyrate]: the Kd (read-out: KD) was ~5 µM and 2.32 µM.

Take `O=C(NC1CCN(CCCCC2(C(=O)NCC(F)(F)F)c3ccccc3-c3ccccc32)CC1)c1ccccc1-c1ccc(C(F)(F)F)cc1` [8E8, lomitapide]: the Kd (read-out: KD) was ~5 µM and 6.77 µM.

Take `CC1=NN(c2ccc(C)c(C)c2)C(=O)/C1=N\Nc1cccc(-c2cccc(C(=O)O)c2)c1O` [17C9, Eltrombopag]: the “binding confirmed by MST” value (labeled START domain) was “confirmed binding for all compounds except 17C9”.

Take `Cc1cc(C2=NOC(c3cc(Cl)cc(Cl)c3)(C(F)(F)F)C2)ccc1C(=O)NCC(=O)NCC(F)(F)F` (stereo not drawn) [20D5, Fluralaner]: the dissociation constant (Kd) (KD) is ~150 µM and 153 µM.

`CCCCCCCCCCCC(=O)NC(CO)CC(O)c1ccccc1` (stereo not drawn) [HPA-12, N-(3Hydroxy-1-hydroxymethyl-3-phenylpropyl)-dodecamide]: the Kd reads like this: (listed as HPA‐12, read-out: KD) approximately 0.04 µM; (read-out: KD) 0.0415 µM.
